Source: patent US20210177828A1, “TAM FAMILY KINASE /AND CSF1R KINASE INHIBITOR AND USE THEREOF” (Nanjing Transthera Biosciences Co., Ltd., priority 2018, published 2021)

Assays:
MDA-MB-231 cell pAxl = target: T1, MDA-MB-231 cell pAxl (Homo sapiens, UniProt P30530); test: Inhibitory activity on cell pAxl, MDA-MB-231 cells, hGAS6 stimulation, Western Blot; type: cell-based; conditions: hGAS6 200 ng/mL
T1 construct: endogenous in cells; host or cells: MDA-MB-231
T1 sequence (P30530 26-894): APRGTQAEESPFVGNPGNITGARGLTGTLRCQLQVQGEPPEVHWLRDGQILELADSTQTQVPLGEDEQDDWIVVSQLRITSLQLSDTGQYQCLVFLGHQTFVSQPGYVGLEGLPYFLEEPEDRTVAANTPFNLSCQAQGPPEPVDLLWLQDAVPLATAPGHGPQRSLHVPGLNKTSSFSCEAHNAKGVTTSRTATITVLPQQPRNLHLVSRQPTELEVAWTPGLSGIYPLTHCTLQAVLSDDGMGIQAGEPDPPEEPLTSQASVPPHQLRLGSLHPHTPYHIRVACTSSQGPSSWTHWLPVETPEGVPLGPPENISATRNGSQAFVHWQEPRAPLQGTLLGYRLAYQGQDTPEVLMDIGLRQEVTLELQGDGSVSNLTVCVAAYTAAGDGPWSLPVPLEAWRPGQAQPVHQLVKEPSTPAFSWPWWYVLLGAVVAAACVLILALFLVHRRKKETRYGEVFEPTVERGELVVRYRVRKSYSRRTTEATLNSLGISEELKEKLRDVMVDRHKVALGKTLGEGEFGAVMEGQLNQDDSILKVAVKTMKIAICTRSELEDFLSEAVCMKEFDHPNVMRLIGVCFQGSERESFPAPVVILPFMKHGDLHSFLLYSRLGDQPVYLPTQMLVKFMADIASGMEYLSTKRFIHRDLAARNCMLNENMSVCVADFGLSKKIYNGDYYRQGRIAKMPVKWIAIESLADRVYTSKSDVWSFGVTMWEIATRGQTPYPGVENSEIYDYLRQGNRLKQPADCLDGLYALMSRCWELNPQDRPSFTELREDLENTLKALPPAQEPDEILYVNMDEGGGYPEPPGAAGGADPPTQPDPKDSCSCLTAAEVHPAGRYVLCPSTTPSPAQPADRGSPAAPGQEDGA
Method: MDA-MB-231 is a breast cancer cell.
MDA-MB-231 cells were inoculated to a 6-well plate (containing 10% FBS DMEM medium, […] cells per well) and adherently cultivated at 37° C., and 5% CO2 for 18 hrs. The cells were starved overnight, and then compound solutions with different concentrations were added. Compounds 1 and 2 had final concentrations of 1.1, 3.3 and 10 nM, and the remaining compounds had final concentrations of 1.1, 3.3, 10 and 30 nM. […] There was a medium containing 1‰DMSO in the negative control well. The cells were incubated at 37° C., and 5% CO2 for 60 min, and then hGAS6 (R&D, final concentration: 200 ng/mL) was added to each well. The cells were further incubated for 60 min, and then the total protein of the cells was extracted for Western Blot experiment. Gray analysis was performed on the results with Image J software, and IC50 values were calculated with GraphPad 5.0 software. The inhibitory activities of the compounds on cell pAxl were detected.

H1299 cell pMer = target: T2, H1299 cell pMer (Homo sapiens, UniProt Q12866); test: Inhibitory activity on cell pMer, H1299 cells, Human Mer Mab stimulation, Western Blot; type: cell-based; conditions: Human Mer Mab 200 ng/mL
T2 construct: endogenous in cells; host or cells: H1299
T2 sequence (Q12866 21-999): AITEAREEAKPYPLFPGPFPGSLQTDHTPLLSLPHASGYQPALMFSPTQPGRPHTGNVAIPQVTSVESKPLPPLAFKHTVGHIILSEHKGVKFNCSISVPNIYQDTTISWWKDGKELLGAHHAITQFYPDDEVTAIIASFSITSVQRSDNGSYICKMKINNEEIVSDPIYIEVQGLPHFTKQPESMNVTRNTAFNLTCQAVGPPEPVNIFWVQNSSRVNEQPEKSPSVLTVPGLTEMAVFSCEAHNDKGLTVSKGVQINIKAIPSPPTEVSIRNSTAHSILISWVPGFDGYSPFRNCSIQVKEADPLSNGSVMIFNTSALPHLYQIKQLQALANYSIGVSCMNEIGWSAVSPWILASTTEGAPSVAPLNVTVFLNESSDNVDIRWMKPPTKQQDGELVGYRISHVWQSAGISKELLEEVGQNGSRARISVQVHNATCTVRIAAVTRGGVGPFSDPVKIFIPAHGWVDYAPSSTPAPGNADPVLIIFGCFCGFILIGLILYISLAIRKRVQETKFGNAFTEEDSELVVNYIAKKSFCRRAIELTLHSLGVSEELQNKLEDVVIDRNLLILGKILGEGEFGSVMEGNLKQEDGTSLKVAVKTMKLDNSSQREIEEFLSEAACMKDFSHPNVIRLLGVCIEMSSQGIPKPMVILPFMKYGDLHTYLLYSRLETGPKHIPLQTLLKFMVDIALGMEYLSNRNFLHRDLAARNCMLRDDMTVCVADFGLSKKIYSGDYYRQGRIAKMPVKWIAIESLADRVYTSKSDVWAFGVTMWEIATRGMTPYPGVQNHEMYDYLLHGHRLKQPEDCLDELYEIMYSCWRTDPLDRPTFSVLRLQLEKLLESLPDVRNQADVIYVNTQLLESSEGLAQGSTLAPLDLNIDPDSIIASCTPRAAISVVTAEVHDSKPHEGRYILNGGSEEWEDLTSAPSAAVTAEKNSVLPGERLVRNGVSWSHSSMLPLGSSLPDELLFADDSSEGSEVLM
Method: H1299 is anon-small cell lung cancer cell.
H1299 cells were inoculated to a 6-well plate (containing 10% FBS 1640 medium, 5×10^5 cells per well) and adherently cultivated at 37° C., and 5% CO2 for 18 hrs. The cells were starved overnight, and then compound solutions with different concentrations were added. The compounds had final concentrations of 0.35, 1.1, 3.3 and 10 nM. […] There was a medium containing 1‰DMSO in the negative control well. The cells were incubated at 37° C., and 5% CO2 for 60 min, and then Human Mer Mab (R&D, final concentration: 200 ng/mL) was added to each well. The cells were further incubated for 60 min, and then the total protein of the cells was extracted for Western Blot experiment. Gray analysis was performed on the results with Image J software, and IC50 values were calculated with GraphPad 5.0 software. The inhibitory activities of the compounds on cell pMer were detected.

| IC50 (MDA-MB-231 cell pAxl) [nM] | IC50 (H1299 cell pMer) [nM] | Compound |
| --- | --- | --- |
| < 1.1 | < 1.1 | COc1cc2nccc(Oc3cnc(NC(=O)c4nn(C5CCOCC5)cc(-c5ccc(C)cc5)c4=O)nc3)c2cc1OC [Compound 18, N-(5-((6,7-dimethoxyquinolin-4-yl)oxy)pyrimidin-2-yl)-4-oxo-1-(tetrahydro-2H-pyran-4-yl)-5-(p-tolyl)-1,4-dihydropyridazin-3-carboxamide] |
| < 1.1 | < 0.35 | COc1cc2nccc(Oc3ccc(NC(=O)c4cn(C5CCOCC5)cc(-c5ccc(C)cc5)c4=O)nc3)c2cc1OC [Compound 19, N-(5-((6,7-dimethoxyquinolin-4-yl)oxy)pyridin-2-yl)-4-oxo-1-(tetrahydro-2H-pyran-4-yl)-5-(p-tolyl)-1,4-dihydropyridin-3-carboxamide] |
| < 10 | 3.3 to 10 | COc1cc2nccc(Oc3cnc(NC(=O)c4cn(C5CCOCC5)cc(-c5ccc(C)cc5)c4=O)nc3)c2cc1OC [Compound 20, N-(5-((6,7-dimethoxyquinolin-4-yl)oxy)pyrimidin-2-yl)-4-oxo-1-(tetrahydro-2H-pyran-4-yl)-5-(p-tolyl)-1,4-dihydropyridin-3-carboxamide] |
